According to patent US8383618B2, “C2-fluoro substituted piperazine linked pyrrolo[2,1-C][1,4] benzodiazepine dimers and a process for the preparation thereof” (Council of Scientific & Industrial Research, priority 2008, dated 2013):

Key:
calf thymus (CT) DNA = test: Thermal denaturation studies; type: binding; conditions: [PBD]:[DNA] molar ratio 1:5; CT-DNA 100 μM, ligand 20 μM; sodium phosphate buffer pH 7.00
Method: The DNA binding affinity of the C2-Fluoro substituted piperazine linked pyrrolo[2,1c][1,4]benzodiazepine dimers were subjected to thermal denaturation studies using calf thymus (CT) DNA (Jones, G. B.; Davey, C. L.; Jenkins, T. C.; Kamal, A.; Kneale, G. G.; Neidle, S.; Webster, G. D.; Thurston, D. E. Anti-cancer Drug Des. 1990, 5, 249. McConnaughie, A. W.; Jenkins, T. C. J. Med. Chem. 1995, 38, 3488). The studies for these compounds (IXa-f) were carried out by DNA/ligand molar ratio is 1:5 the increase in the helix melting temperature (ΔTm) for each compound was examined at 0 h. […] Data for DSB-120 and SJG-136 are included in Table-3 for comparison. The synthetic DC-81 dimer (DSB-120) gives a ΔTm 10.2° C. and SJC-136 gives a […]Tm of 25° C. under identical experimental condition.

[1] = test system: sixty human tumor cells derived from nine cancer types; test: NCI in vitro anticancer screen (SRB), whole panel; type: cell-based
Method: (§1) The above compounds were evaluated for in vitro anticancer activity against sixty human tumor cells derived from nine cancer types (leukemia, non small cell cancer, colon cancer CNS cancer, melanoma, ovarian cancer renal cancer, prostate cancer and breast cancer) as per NCI protocol. For each compound, dose response curves for each cell line were measured at a minimum of five concentrations at 10-fold dilution. A protocol of 48 h continuous drug exposure was used, and a sulforhodamine B (SRB) protein assay was used to estimate cell viability or growth. The concentration causing 50% cell growth inhibition (GI50), total cell growth inhibition (TGI, 0% growth) and 50% cell death (LC-50% growth) compared with the control was calculated.

HL-60(TB) = test: NCI in vitro anticancer screen (SRB); type: cell-based, human; conditions: Leukemia, 48 h exposure
Method: as §1

HS 578T = test: NCI in vitro anticancer screen (SRB); type: cell-based, human; conditions: Breast, 48 h exposure
Method: as §1

COLO 205 = test: NCI in vitro anticancer screen (SRB); type: cell-based, human; conditions: Colon, 48 h exposure
Method: as §1

CCRF-CEM = test: NCI in vitro anticancer screen (SRB); type: cell-based, human; conditions: Leukemia, 48 h exposure
Method: as §1

MCF7 = test: NCI in vitro anticancer screen (SRB); type: cell-based, human; conditions: Breast, 48 h exposure
Method: as §1

A498 = test: NCI in vitro anticancer screen (SRB); type: cell-based, human; conditions: Renal, 48 h exposure
Method: as §1

MDA-MB-435 = test: NCI in vitro anticancer screen (SRB); type: cell-based, human; conditions: Breast, 48 h exposure
Method: as §1

MDA-MB-468 = test: NCI in vitro anticancer screen (SRB); type: cell-based, human; conditions: Breast, 48 h exposure
Method: as §1

SF-268 = test: NCI in vitro anticancer screen (SRB); type: cell-based, human; conditions: CNS, 48 h exposure
Method: as §1

NCI-H460 = test: NCI in vitro anticancer screen (SRB); type: cell-based, human; conditions: Non-small cell lung, 48 h exposure
Method: as §1

IGROV1 = test: NCI in vitro anticancer screen (SRB); type: cell-based, human; conditions: Ovarian, 48 h exposure
Method: as §1

T-47D = test: NCI in vitro anticancer screen (SRB); type: cell-based, human; conditions: Breast, 48 h exposure
Method: as §1

BT-549 = test: NCI in vitro anticancer screen (SRB); type: cell-based, human; conditions: Breast, 48 h exposure
Method: as §1

SNB-75 = test: NCI in vitro anticancer screen (SRB); type: cell-based, human; conditions: CNS, 48 h exposure
Method: as §1

SK-OV-3 = test: NCI in vitro anticancer screen (SRB); type: cell-based, human; conditions: Ovarian, 48 h exposure
Method: as §1

SW-620 = test: NCI in vitro anticancer screen (SRB); type: cell-based, human; conditions: Colon, 48 h exposure
Method: as §1

HOP-62 = test: NCI in vitro anticancer screen (SRB); type: cell-based, human; conditions: Non-small cell lung, 48 h exposure
Method: as §1

M14 = test: NCI in vitro anticancer screen (SRB); type: cell-based, human; conditions: Melanoma, 48 h exposure
Method: as §1

SNB-19 = test: NCI in vitro anticancer screen (SRB); type: cell-based, human; conditions: CNS, 48 h exposure
Method: as §1

NCI-H23 = test: NCI in vitro anticancer screen (SRB); type: cell-based, human; conditions: Non-small cell lung, 48 h exposure
Method: as §1

SR = test: NCI in vitro anticancer screen (SRB); type: cell-based, human; conditions: Leukemia, 48 h exposure
Method: as §1

OVCAR-3 = test: NCI in vitro anticancer screen (SRB); type: cell-based, human; conditions: Ovarian, 48 h exposure
Method: as §1

RPMI-8226 = test: NCI in vitro anticancer screen (SRB); type: cell-based, human; conditions: Leukemia, 48 h exposure
Method: as §1

DU-145 = test: NCI in vitro anticancer screen (SRB); type: cell-based, human; conditions: Prostate, 48 h exposure
Method: as §1

HOP-92 = test: NCI in vitro anticancer screen (SRB); type: cell-based, human; conditions: Non-small cell lung, 48 h exposure
Method: as §1

SK-MEL-5 = test: NCI in vitro anticancer screen (SRB); type: cell-based, human; conditions: Melanoma, 48 h exposure
Method: as §1

NCI-H522 = test: NCI in vitro anticancer screen (SRB); type: cell-based, human; conditions: Non-small cell lung, 48 h exposure
Method: as §1

UACC-62 = test: NCI in vitro anticancer screen (SRB); type: cell-based, human; conditions: Melanoma, 48 h exposure
Method: as §1

786-0 = test: NCI in vitro anticancer screen (SRB); type: cell-based, human; conditions: Renal, 48 h exposure
Method: as §1

LOX IMVI = test: NCI in vitro anticancer screen (SRB); type: cell-based, human; conditions: Melanoma, 48 h exposure
Method: as §1

SK-MEL-28 = test: NCI in vitro anticancer screen (SRB); type: cell-based, human; conditions: Melanoma, 48 h exposure
Method: as §1

CAKI-1 = test: NCI in vitro anticancer screen (SRB); type: cell-based, human; conditions: Renal, 48 h exposure
Method: as §1

MOLT-4 = test: NCI in vitro anticancer screen (SRB); type: cell-based, human; conditions: Leukemia, 48 h exposure
Method: as §1

SF-539 = test: NCI in vitro anticancer screen (SRB); type: cell-based, human; conditions: CNS, 48 h exposure
Method: as §1

SN12C = test: NCI in vitro anticancer screen (SRB); type: cell-based, human; conditions: Renal, 48 h exposure
Method: as §1

HCT-116 = test: NCI in vitro anticancer screen (SRB); type: cell-based, human; conditions: Colon, 48 h exposure
Method: as §1

SK-MEL-2 = test: NCI in vitro anticancer screen (SRB); type: cell-based, human; conditions: Melanoma, 48 h exposure
Method: as §1

K-562 = test: NCI in vitro anticancer screen (SRB); type: cell-based, human; conditions: Leukemia, 48 h exposure
Method: as §1

MALME-3M = test: NCI in vitro anticancer screen (SRB); type: cell-based, human; conditions: Melanoma, 48 h exposure
Method: as §1

U251 = test: NCI in vitro anticancer screen (SRB); type: cell-based, human; conditions: CNS, 48 h exposure
Method: as §1

PC-3 = test: NCI in vitro anticancer screen (SRB); type: cell-based, human; conditions: Prostate, 48 h exposure
Method: as §1

[2] = human tumor cell lines, 48 h drug exposure, SRB

“1,1′-{[(bisbutane-1,N-diyl)piperazine]dioxy}bis[(11aS)-2-fluoro-7-methoxy-1,2,3,11a-tetrahydro-5H-pyrrolo[2,1-c][1,4]benzodiazepine-5-one] [IXb]” was tested, and the “ΔTm after incubation at 37° C. for 0 h” value (calf thymus (CT) DNA) was 38.0 °C.

For “1,1′-{[(bispentane-1,N-diyl)piperazine]dioxy}bis[(11aS)-2-fluoro-7-methoxy-1,2,3,11a-tetrahydro-5H-pyrrolo[2,1-c][1,4]benzodiazepine-5-one] [IXc]”, the “ΔTm after incubation at 37° C. for 0 h” value (calf thymus (CT) DNA) was 37.0 °C.

For COc1cc2c(cc1OCCCN1CCN(CCCOc3cc4c(cc3OC)C(=O)N3CC(F)C[C@H]3C=N4)CC1)N=C[C@@H]1CC(F)CN1C2=O (stereo partly drawn) [Compound IXa, 1,1′-{[(bispropane-1,N-diyl)piperazine]dioxy}bis[(11aS)-2-fluoro-7-methoxy-1,2,3,11a-tetrahydro-5H-pyrrolo[2,1-c][1,4]benzodiazepine-5-one]], the “ΔTm after incubation at 37° C. for 0 h” value (calf thymus (CT) DNA) was 37.0 °C, the GI50 ([1]; against fifty nine cell lines in nine cell panels) was less than 95 nM and the “Log10 GI50 mean graph midpoint (MG_MID)” value [1, 2] was −7.28. The “Log10 LC50 mean graph midpoint (MG_MID)” value [1, 2] was −4.65, the “Log10 TGI mean graph midpoint (MG_MID)” value [1, 2] was −6.12 and the GI50 (HL-60(TB)) was 10 nM. For the same molecule, the GI50 (HS 578T) was 48 nM, the GI50 (COLO 205) was 40 nM and the GI50 (CCRF-CEM) was 10 nM. The GI50 (MCF7) was 10 nM, the GI50 (A498) was 66 nM and the GI50 (MDA-MB-435) was 34 nM. For the same molecule, the GI50 (MDA-MB-468) was 10 nM, the GI50 (SF-268) was 11 nM and the GI50 (NCI-H460) was 10 nM. For the same molecule, the GI50 (IGROV1) was 59 nM, the GI50 (T-47D) was 13 nM and the GI50 (BT-549) was 95 nM. It also gave a GI50 (SNB-75) of 33 nM, a GI50 (SK-OV-3) of 70 nM and a GI50 (SW-620) of 56 nM. The GI50 (HOP-62) was 12 nM, the GI50 (M14) was 35 nM and the GI50 (SNB-19) was 28 nM. The GI50 (NCI-H23) was 32 nM, the GI50 (SR) was 10 nM and the GI50 (OVCAR-3) was 48 nM. The GI50 (RPMI-8226) was 22 nM, the GI50 (DU-145) was 47 nM and the GI50 (HOP-92) was 96 nM. It also gave a GI50 (SK-MEL-5) of 31 nM, a GI50 (NCI-H522) of 10 nM and a GI50 (UACC-62) of 26 nM. For the same molecule, the GI50 (786-0) was 39 nM, the GI50 (LOX IMVI) was 17 nM and the GI50 (SK-MEL-28) was 31 nM. For the same molecule, the GI50 (SK-MEL-28; listed as IX a) was 43 nM, the GI50 (CAKI-1) was 28 nM and the GI50 (MOLT-4) was 10 nM. The GI50 (SF-539) was 11 nM, the GI50 (SN12C) was 18 nM and the GI50 (HCT-116) was 28 nM. It also gave a GI50 (SK-MEL-2) of 43 nM, a GI50 (K-562) of 15 nM and a GI50 (MALME-3M) of 24 nM. The GI50 (U251) was 15 nM and the GI50 (PC-3) was 15 nM.

COc1cc2c(cc1OCCCOc1cc3c(cc1OC)C(=O)N1CCC[C@H]1C=N3)N=C[C@@H]1CCCN1C2=O [DSB-120, reference compound] was tested, and the “ΔTm after incubation at 37° C. for 0 h” value (calf thymus (CT) DNA) was 10.2 °C.
